What all share (assay type): cell-based
Data set [1] deals with NB4, AsR2 and IM9 cells. The data set can be described thus: Apoptosis by propidium iodide staining and flow cytometry. Conditions: 48 hours, all concentrations of arsenic tested. As for the experimental part: Quantitation of apoptotic cells was performed as previously described (Hardin et al. J. Immunol. Methods. 1992; 154:99-107). Cells were treated, washed in buffer (PBS/5% FBS/0.01 M NaN3) at 4° C., pelleted, and resuspended in 0.5 ml of hypotonic fluorochrome solution containing 50 μg/ml propidium iodide (PI), 0.1% sodium citrate, and 0.1% Triton X-100™. Fluorescence was measured on a Becton-Dickinson™ FACS Calibur. Cells undergoing DNA fragmentation and apoptosis (those in which PI fluorescence was weaker than the typical G0-G1 cell cycle peak) were quantified using CellQUEST™ software.
To evaluate whether the growth inhibitory effect observed upon combined treatment of As2O3 and trolox in NB4, AsR2 and IM9 cells was due to the induction of apoptosis, cells were treated for 48 hours, subsequently stained with PI and analyzed by flow cytometry. […] To confirm an enhanced induction of apoptotic death, FITC-labeled Annexin V, which detects phosphatidylserine residues appearing on the external surface of early apoptotic cells, was used. Consistent with the increase in the subG0 subpopulation after PI staining, trolox augmented the percentage of cells positive for Annexin V (FIG. 2B lower panels). To further confirm the induction of apoptosis by the combination of As2O3 and trolox, we evaluated caspase 3 activation and PARP cleavage. […] Similar results were obtained with AsR2 and IM9 cells.

The test system of data set [2] is Heme oxygenase-1 (HO-1). The data set can be described thus: HO-1 protein levels by Western blot. The conditions noted are these: NB4, IM9 and AsR2 cells, 24 hours. How it is done: Cell extracts were washed with cold PBS and resuspended in 0.1 ml lysis buffer (5 mM NaH2PO4, 1 mM DTT, 10% glycerol, 1 mM PMSF, 10 μg/ml each aprotinin and leupeptin, pH 7.4) at 4° C. Extracts were centrifuged at 14,000 rpm at 4° C., and supernatants were transferred to fresh tubes. Protein concentration was determined with the Bio-Rad™ protein assay (Bio-Rad, Mississauga, Ontario, Canada). To detect HO-1 or PARP, 50 μg of protein was added to an equal volume of 2× sample buffer and run on a 10% SDS-polyacrylamide gel. Proteins were transferred to nitrocellulose membranes (Bio-Rad), stained with Ponceau S in 5% acetic acid to ensure equal protein loading, and blocked with 5% milk in PBS containing 0.5% Triton X-100™ for 1 hour at room temperature. The membrane was hybridized overnight at 4° C. with antibody against PARP (1:1000; Oncogene) or 3 hours with an antibody against HO-1 (1:1000; StressGen). Following three washes with PBS and 0.5% Triton X-100™, blots were incubated with a goat anti-rabbit antibody (1:10,000; PharMingen) for one hour at room temperature. Bands were visualized by enhanced chemiluminescence (Amersham Pharmacia Biotech, Baie d'Urfe, Quebec, Canada). Immunostaining for β-actin was used to confirm equal protein loading. Immune complex kinase assays for c-jun kinase activity were performed as previously described (Davison et al. Blood. 2004; 103: 3496-3502).

The test system of data set [3] is Normal human PBMC. The data set can be described thus: Colony forming unit assay of peripheral blood mononuclear cells. How it is done:
Peripheral blood mononuclear cells (PBMC) were obtained from two healthy normal donors after obtaining informed consent and were collected into tubes containing 7.2 mg K2EDTA. The blood was diluted 1:3 in PBS, layered onto an equal volume of Ficoll-Plaque™ PLUS (Amershan Biosciences, Piscataway, N.J.) and centrifuged at 1500 rpm for 30 minutes. The mononuclear cell layer was collected and washed twice in PBS. Methylcellulose media was prepared by combining IMDM, 30% FBS, 1% bovine serum albumin, 10^−4M 2-mercaptoethanol, 2 mM L-glutamine, 0.1U penicillin, 0.1 μg/ml streptomycin, granulocyte-macrophage colony-stimulating factor (GM-CSF; 10 ng/ml), interleukin-3 (IL-3; 10 ng/ml0) and erythropoietin (EPO; 3U/ml). PBMC were seeded in this media at a concentration of 300,000 cells/ml and treated with or without As2O3, trolox or the combination. Cultures were performed in triplicate in 35 mm^2 dishes and incubated at 37° C. in 4% CO2. Colonies derived from […] (BFU-E) and CFU-GM were counted on day 7 and 13.

Data set [4] concerns NB4 cells. The data set can be described thus: Growth assay, viable cells by trypan blue exclusion, NB4. Conditions: NB4, 100 μM trolox alone, any time point. How it is done:
NB4, IM9 and AsR2 cells were seeded at 1×10^5 cells/ml in 24-well plates. Cells were treated with various concentrations of As2O3 or doxorubicin, alone or in combination with 100 μM trolox for six days. Viable cells were counted by trypan blue exclusion on day 1, 3 and 6. All cells were maintained at a density lower than 1×10^6 cells/ml through dilution as required, and media +/− treatment was replaced every third day. MCF-7, MDA-231 and T47D were seeded in 24-well plates at a density of 4000 cells/well. The next day, fresh media containing As2O3+/− trolox was added. On the days indicated, cells were fixed in 10% trichloroacetic acid and subsequently stained with sulforhodamine B (SRB). Bound SRB was solubilized in 10 mM unbuffered Tris and optical density was measured at 570 nm in a microplate reader.

SMILES strings stand for the structures.

As for `Cc1c(C)c2c(c(C)c1O)CCC(C)(C(=O)O)O2` (stereo not shown) [trolox, Trolox], the “apoptosis (PI staining)” value in data set [1] is “no effect on the apoptotic rate”. Moreover, the HO-1 protein induction result in data set [2] was “not detected”. The “colony formation (CFU-GM, BFU-E, CFU-E)” value in data set [3] is “did not inhibit colony formation”. In addition, the “effect on cell number” value in data set [4] was “no effect on cell number”.

Values taken from patent publication US8784899B2, “Compositions and methods for cancer treatment” (priority 2005, dated 2014).
